The text below walks through data of publication PMC8319832, “Fine-Tuning of Alkaline Residues on the Hydrophilic Face Provides a Non-toxic Cationic α-Helical Antimicrobial Peptide Against Antibiotic-Resistant ESKAPE Pathogens” (Frontiers in Microbiology, 2021).

Converted amounts (≈) assume the structure as drawn.

In test [1] the test system is K. pneumoniae ATCC 700603. Put plainly: MIC, broth dilution. It counts as cell-based, Klebsiella pneumoniae. As to conditions: CLSI broth dilution, MHB, 37°C, 20 h, OD630, at least three repeats; standard strain. As for the experimental part: (§1) All experiments were repeated at least three times.
(§2) To study the influence of physiological ions on the antimicrobial activities of the peptides, The MICs of the peptides were also determined against the standard bacterial strains cultured in MHB containing various salts at their physiological concentrations (150 mM NaCl, 4.5 mM KCl, 1 mM MgCl2, 2 mM CaCl2, 6 μM NH4HCO3, and 4 μM FeCl3) ([Ma et al., 2016]).
A general note: In broth dilution the organism is exposed to a series of concentrations in liquid medium.

In test [2] the test system is E. faecium 898. Put plainly: MIC, broth dilution. In kind it is cell-based, Enterococcus faecium. As to conditions: CLSI broth dilution, MHB, 37°C, 20 h, OD630, at least three repeats; clinical isolate.
Source text: as §1

For test [3], the system named is S. aureus 9124. Kind of test: MIC, broth dilution. It counts as cell-based, Staphylococcus aureus. Conditions: CLSI broth dilution, MHB, 37°C, 20 h, OD630, at least three repeats; clinical isolate, MRSA.
Source text: as §1

In test [4] the test system is S. aureus 4188. Put plainly: MIC, broth dilution. It counts as cell-based, Staphylococcus aureus. As to conditions: CLSI broth dilution, MHB, 37°C, 20 h, OD630, at least three repeats; clinical isolate, penicillin-resistant.
Source text: as §1

In test [5] the test system is S. aureus 1176. Put plainly: MIC, broth dilution. As to conditions: CLSI broth dilution, MHB, 37°C, 20 h, OD630, at least three repeats; clinical isolate. It counts as cell-based, Staphylococcus aureus.
Source text: as §1

The test system of test [6] is S. epidermidis 6943. Put plainly: MIC, broth dilution. In kind it is cell-based. As to conditions: CLSI broth dilution, MHB, 37°C, 20 h, OD630, at least three repeats; clinical isolate, MRSE.
Source text: as §1

For test [7], the system named is S. epidermidis 9092. Kind of test: MIC, broth dilution. In kind it is cell-based. Conditions: CLSI broth dilution, MHB, 37°C, 20 h, OD630, at least three repeats; clinical isolate, MRSE.
Source text: as §1

Test [8] relates to S. epidermidis 888. Kind of test: MIC, broth dilution. Conditions: CLSI broth dilution, MHB, 37°C, 20 h, OD630, at least three repeats; clinical isolate. In kind it is cell-based.
Source text: as §1

The subject of test [9] is E. faecalis 901. Put plainly: MIC, broth dilution. In kind it is cell-based. Conditions: CLSI broth dilution, MHB, 37°C, 20 h, OD630, at least three repeats; clinical isolate.
Source text: as §1

Test [10] deals with P. aeruginosa 9014. Kind of test: MIC, broth dilution. As to conditions: CLSI broth dilution, MHB, 37°C, 20 h, OD630, at least three repeats; clinical isolate, CRE, MDR. It counts as cell-based, Pseudomonas aeruginosa.
Source text: as §1

Test [11] deals with P. aeruginosa 9042. Kind of test: MIC, broth dilution. In kind it is cell-based, Pseudomonas aeruginosa. As to conditions: CLSI broth dilution, MHB, 37°C, 20 h, OD630, at least three repeats; clinical isolate.
Source text: as §1

In test [12] the test system is A. baumannii 13079. Kind of test: MIC, broth dilution. Conditions: CLSI broth dilution, MHB, 37°C, 20 h, OD630, at least three repeats; clinical isolate, CRE, MDR. It counts as cell-based, Acinetobacter baumannii.
Source text: as §1

In test [13] the test system is A. baumannii 9068. Kind of test: MIC, broth dilution. It counts as cell-based, Acinetobacter baumannii. Conditions: CLSI broth dilution, MHB, 37°C, 20 h, OD630, at least three repeats; clinical isolate, CRE, MDR.
Source text: as §1

Test [14] concerns A. baumannii 906. Kind of test: MIC, broth dilution. It counts as cell-based, Acinetobacter baumannii. Conditions: CLSI broth dilution, MHB, 37°C, 20 h, OD630, at least three repeats; clinical isolate, CRE, MDR.
Source text: as §1

In test [15] the test system is A. baumannii 13012. Kind of test: MIC, broth dilution. It counts as cell-based, Acinetobacter baumannii. Conditions: CLSI broth dilution, MHB, 37°C, 20 h, OD630, at least three repeats; clinical isolate, CRE, MDR.
Source text: as §1

Test [16] concerns K. pneumoniae 9126. Kind of test: MIC, broth dilution. It counts as cell-based, Klebsiella pneumoniae. As to conditions: CLSI broth dilution, MHB, 37°C, 20 h, OD630, at least three repeats; clinical isolate, CRE.
Source text: as §1

Test [17] concerns E. coli 2678. Put plainly: MIC, broth dilution. In kind it is cell-based, Escherichia coli. As to conditions: CLSI broth dilution, MHB, 37°C, 20 h, OD630, at least three repeats; clinical isolate, ESBL.
Source text: as §1

The test system of test [18] is E. coli ATCC35218. Put plainly: MIC, broth dilution. It counts as cell-based, Escherichia coli. As to conditions: CLSI broth dilution, MHB, 37°C, 20 h, OD630, at least three repeats; standard strain.
Source text: as §1

Test [19] concerns E. coli 2687. Put plainly: MIC, broth dilution. In kind it is cell-based, Escherichia coli. As to conditions: CLSI broth dilution, MHB, 37°C, 20 h, OD630, at least three repeats; clinical isolate, ESBL.
Source text: as §1

In test [20] the test system is A. baumannii ATCC 19606. Kind of test: MIC, broth dilution. In kind it is cell-based, Acinetobacter baumannii. As to conditions: CLSI broth dilution, MHB, 37°C, 20 h, OD630, at least three repeats; standard strain. The procedure:
as §1, §2

Test [21] relates to S. aureus 9124. Put plainly: Drug sensitivity, Kirby-Bauer test. In kind it is cell-based, Staphylococcus aureus. Further details: key: 'S' represents susceptibility; 'I' represents intermediate efficacy; 'R' represents resistance. Conditions: clinical isolate, MRSA. As for the experimental part: (§3) The bacteria used in this study included the standard strains S. aureus ATCC29213 and ATCC25923, E. faecalis ATCC29212, E. coli ATCC25922 and ATCC35218, A. baumannii ATCC19606, K. pneumoniae ATCC700603 and P. aeruginosa ATCC27853, these strains were purchased from the China Center of Type Culture Collection (CCTCC). The antimicrobial activities of the peptides were also determined against clinically isolated strains S. aureus 4188, 9124, 1176, S. epidermidis 9092, 6943, 888, E. faecalis 901, E. faecium 898, E. coli 2678, 2687, K. pneumoniae 9126, P. aeruginosa 9014, 9042, and A. baumannii 906, 13012, 13079, 9068, these strains were acquired from Taihe Hospital, Hubei University of Medicine. The drug sensitivities of the clinical isolates to the antibiotics were determined by the Kirby-Bauer test ([Chinnambedu et al., 2020]).

In test [22] the test system is S. aureus 4188. Put plainly: Drug sensitivity, Kirby-Bauer test. The arrangement: key: 'S' represents susceptibility; 'I' represents intermediate efficacy; 'R' represents resistance. It counts as cell-based, Staphylococcus aureus. As to conditions: clinical isolate. As for the experimental part: as §3
Test [23] concerns S. aureus 1176. Put plainly: Drug sensitivity, Kirby-Bauer test. It counts as cell-based, Staphylococcus aureus. Further details: key: 'S' represents susceptibility; 'I' represents intermediate efficacy; 'R' represents resistance. Conditions: clinical isolate. As for the experimental part: as §3
The subject of test [24] is E. faecium 898. Put plainly: Drug sensitivity, Kirby-Bauer test. It counts as cell-based, Enterococcus faecium. The arrangement: key: 'S' represents susceptibility; 'I' represents intermediate efficacy; 'R' represents resistance. As to conditions: clinical isolate. The procedure:
as §3

Test [25] relates to S. epidermidis 6943. Put plainly: Drug sensitivity, Kirby-Bauer test. The arrangement: key: 'S' represents susceptibility; 'I' represents intermediate efficacy; 'R' represents resistance. Conditions: clinical isolate, MRSE. It counts as cell-based. The procedure: as §3
Test [26] relates to S. epidermidis 9092. Put plainly: Drug sensitivity, Kirby-Bauer test. In kind it is cell-based. The arrangement: key: 'S' represents susceptibility; 'I' represents intermediate efficacy; 'R' represents resistance. As to conditions: clinical isolate, MRSE. The procedure:
as §3

In test [27] the test system is S. epidermidis 888. Put plainly: Drug sensitivity, Kirby-Bauer test. In kind it is cell-based. Further details: key: 'S' represents susceptibility; 'I' represents intermediate efficacy; 'R' represents resistance. As to conditions: clinical isolate. The procedure:
as §3

Test [28] relates to E. faecalis 901. Put plainly: Drug sensitivity, Kirby-Bauer test. Conditions: clinical isolate. Further details: key: 'S' represents susceptibility; 'I' represents intermediate efficacy; 'R' represents resistance. It counts as cell-based. As for the experimental part:
as §3

Broadly, the MIC is the smallest concentration in the dilution series that meets the test's criterion for growth inhibition.

As for `CC[C@H](C)[C@H](NC(=O)CN)C(=O)NCC(=O)N[C@@H](C)C(=O)N[C@H](C(=O)N[C@@H](CC(C)C)C(=O)N[C@@H](CCCCN)C(=O)N[C@H](C(=O)N[C@@H](CC(C)C)C(=O)N[C@H](C(=O)N[C@H](C(=O)NCC(=O)N[C@@H](CC(C)C)C(=O)N1CCC[C@H]1C(=O)N[C@@H](C)C(=O)N[C@@H](CC(C)C)C(=O)N[C@H](C(=O)N[C@@H](CO)C(=O)N[C@@H](Cc1c[nH]c2ccccc12)C(=O)N[C@H](C(=O)N[C@@H](CCCCN)C(=O)N[C@@H](CCCNC(=N)N)C(=O)N[C@@H](CCCCN)C(=O)N[C@@H](CCCNC(=N)N)C(=O)N[C@@H](CCC(N)=O)C(=O)N[C@@H](CCC(N)=O)C(N)=O)[C@@H](C)CC)[C@@H](C)CC)[C@@H](C)O)[C@@H](C)O)C(C)C)C(C)C` [Melittin], the MIC in test [1] worked out at 5 µg/mL (≈ 1.76 µM); in test [2] it was 5 µg/mL (≈ 1.76 µM); in [3], 2.5 µg/mL (≈ 0.878 µM); in test [4], 2.5 µg/mL (≈ 0.878 µM); in test [5] it was 5 µg/mL (≈ 1.76 µM); in test [6] it was 2.5 µg/mL (≈ 0.878 µM). For the same compound, the MIC in test [7] was 2.5 µg/mL (≈ 0.878 µM); in test [8], 2.5 µg/mL (≈ 0.878 µM); in [9], 2.5 µg/mL (≈ 0.878 µM); in test [10], 5 µg/mL (≈ 1.76 µM); in test [11], 5 µg/mL (≈ 1.76 µM); in test [12], 2.5 µg/mL (≈ 0.878 µM). Further, the MIC in test [13] was 2.5 µg/mL (≈ 0.878 µM); in test [14], 2.5 µg/mL (≈ 0.878 µM); in test [15], 2.5 µg/mL (≈ 0.878 µM); in test [16] it was 5 µg/mL (≈ 1.76 µM); in test [17], 5 µg/mL (≈ 1.76 µM); in [18] it was 5 µg/mL (≈ 1.76 µM). Besides, the MIC in test [19] and in test [20] was 2.5 µg/mL (≈ 0.878 µM) in each case.

Turning to Penicillin, the “Drug sensitivity of the isolate to the antibiotic” value (“Drug sensitivity of the isolate” below) in test [21], in [22], in test [23], in [24], in test [25] and in [26] was “R” throughout. In addition, the “Drug sensitivity of the isolate” value in test [27] and in [28] was “S” throughout.

For the compound `CO[C@H]1/C=C/O[C@@]2(C)Oc3c(C)c(O)c4c(O)c(c(/C=N/N5CCN(C)CC5)c(O)c4c3C2=O)NC(=O)/C(C)=C\C=C\[C@H](C)[C@H](O)[C@@H](C)[C@@H](O)[C@@H](C)[C@H](OC(C)=O)[C@@H]1C` [Rifampin], the “Drug sensitivity of the isolate” value was “S” in test [21]; “S” in test [22]; “S” in test [23]; “R” in test [24]; “S” in test [25]; “S” in test [26]. Also, the results for the “Drug sensitivity of the isolate” value in test [27] and in [28] were “S” and “R”, respectively.

Regarding `CC[C@H]1OC(=O)[C@H](C)[C@@H](O[C@H]2C[C@@](C)(OC)[C@@H](O)[C@H](C)O2)[C@H](C)[C@@H](O[C@@H]2O[C@H](C)C[C@H](N(C)C)[C@H]2O)[C@](C)(O)C[C@@H](C)C(=O)[C@H](C)[C@@H](O)[C@]1(C)O` [Erythromycin], the “Drug sensitivity of the isolate” value in test [21] is on record as “R”; in test [22] it was “S”; in [23], “R”; in test [24], “R”; in [25] it was “R”; in test [26], “R”. For the same compound, the “Drug sensitivity of the isolate” value in test [27] and in test [28] was “R” in each case.

As for `CNC(C)C1CCC(N)C(OC2C(N)CC(N)C(OC3OCC(C)(O)C(NC)C3O)C2O)O1` (stereo not shown) [Gentamicin], the “Drug sensitivity of the isolate” value in [21] is on record as “S”; in [22] it was “S”; in test [23], “S”; in test [24] it was “R”; in test [25], “S”; in test [26], “R”. Also, the “Drug sensitivity of the isolate” value in test [27] and in test [28] was “R” throughout.
